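48-hour exposure; five concentrations; linearly interpolated endpoints. TGI denotes the concentration required for complete inhibition of growth.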
What was measured:
Assay in all cases: growth of human tumour cells (NCI), 48 h
HOP-62 NSCLC = system: HOP-62 NSCLC
K-562 leukemia = system: K-562 leukemia
HS 578T breast = system: HS 578T breast
LOX IMVI melanoma = system: LOX IMVI melanoma
MOLT-4 leukemia = system: MOLT-4 leukemia
A498 renal = system: A498 renal
HCC-2998 colon = system: HCC-2998 colon
SW-620 colon = system: SW-620 colon
MDA-N = system: MDA-N
OVCAR-8 ovarian = system: OVCAR-8 ovarian
HL-60(TB) leukemia = system: HL-60(TB) leukemia
SK-MEL-28 melanoma = system: SK-MEL-28 melanoma
SF-268 CNS = system: SF-268 CNS
SR leukemia = system: SR leukemia
OVCAR-3 ovarian = system: OVCAR-3 ovarian
SF-295 CNS = system: SF-295 CNS
NCI-H522 lung = system: NCI-H522 lung
DU-145 prostate = system: DU-145 prostate
UACC-257 melanoma = system: UACC-257 melanoma
SK-MEL-5 melanoma = system: SK-MEL-5 melanoma
M14 melanoma = system: M14 melanoma
786-0 renal = system: 786-0 renal
U251 CNS = system: U251 CNS
CAKI-1 renal = system: CAKI-1 renal
MALME-3M melanoma = system: MALME-3M melanoma
A549 NSCLC = system: A549 NSCLC
SK-MEL-2 melanoma = system: SK-MEL-2 melanoma
RPMI-8226 leukemia = system: RPMI-8226 leukemia
BT-549 breast = system: BT-549 breast
OVCAR-5 ovarian = system: OVCAR-5 ovarian
SF-539 CNS = system: SF-539 CNS
T-47D breast = system: T-47D breast
TK-10 renal = system: TK-10 renal
SN12C renal = system: SN12C renal
KM12 colon = system: KM12 colon
HCT-116 colon = system: HCT-116 colon
SNB-19 CNS = system: SNB-19 CNS
RXF 393 renal = system: RXF 393 renal
OVCAR-4 ovarian = system: OVCAR-4 ovarian
IGROV1 ovarian = system: IGROV1 ovarian
CCRF-CEM leukemia = system: CCRF-CEM leukemia
EKVX NSCLC = system: EKVX NSCLC
NCI-H460 lung = system: NCI-H460 lung
SNB-75 CNS = system: SNB-75 CNS
NCI/ADR-RES ovarian = system: NCI/ADR-RES ovarian
ACHN renal = system: ACHN renal
HCT-15 colon = system: HCT-15 colon
PC-3 prostate = system: PC-3 prostate
NCI-H226 lung = system: NCI-H226 lung
HOP-92 NSCLC = system: HOP-92 NSCLC
MDA-MB-435 = system: MDA-MB-435
UACC-62 melanoma = system: UACC-62 melanoma
UO-31 renal = system: UO-31 renal
HT29 colon = system: HT29 colon
NCI-H23 lung = system: NCI-H23 lung
SK-OV-3 ovarian = system: SK-OV-3 ovarian
MCF7 breast = system: MCF7 breast
COLO 205 colon = system: COLO 205 colon

## O=C1CC(Cl)c2c1csc2Br (stereo not drawn)
HOP-62 NSCLC
  TGI: 28.7 µM
K-562 leukemia
  TGI: 47 µM
HS 578T breast
  TGI: 47.5 µM
LOX IMVI melanoma
  TGI: 30.5 µM
MOLT-4 leukemia
  TGI: 22.2 µM
A498 renal
  TGI: 53.8 µM
HCC-2998 colon
  TGI: 31.2 µM
SW-620 colon
  TGI: 12.6 µM
MDA-N
  TGI: 42.2 µM
OVCAR-8 ovarian
  TGI: 29.8 µM
HL-60(TB) leukemia
  TGI: 52.4 µM
SK-MEL-28 melanoma
  TGI: 32.1 µM
SF-268 CNS
  TGI: 31.4 µM
SR leukemia
  TGI: 22.3 µM
OVCAR-3 ovarian
  TGI: 39.5 µM
SF-295 CNS
  TGI: 50.2 µM
NCI-H522 lung
  TGI: 11.3 µM
DU-145 prostate
  TGI: > 100 µM
UACC-257 melanoma
  TGI: 32.1 µM
SK-MEL-5 melanoma
  TGI: 30.6 µM
M14 melanoma
  TGI: 27.3 µM
786-0 renal
  TGI: 25.9 µM
U251 CNS
  TGI: 30.4 µM
CAKI-1 renal
  TGI: 17.7 µM
MALME-3M melanoma
  TGI: 30.1 µM
A549 NSCLC
  TGI: 41.4 µM
SK-MEL-2 melanoma
  TGI: 29.8 µM
RPMI-8226 leukemia
  TGI: 3.25 µM
BT-549 breast
  TGI: 34 µM
OVCAR-5 ovarian
  TGI: 33.5 µM
SF-539 CNS
  TGI: 6.46 µM
T-47D breast
  TGI: 70.1 µM
TK-10 renal
  TGI: 29.5 µM
SN12C renal
  TGI: 35.7 µM
KM12 colon
  TGI: 28.5 µM
HCT-116 colon
  TGI: 33.1 µM
SNB-19 CNS
  TGI: 32.9 µM
RXF 393 renal
  TGI: 34.7 µM
OVCAR-4 ovarian
  TGI: 63.6 µM
IGROV1 ovarian
  TGI: 30.8 µM
CCRF-CEM leukemia
  TGI: 7.78 µM
EKVX NSCLC
  TGI: 43.2 µM
NCI-H460 lung
  TGI: 42.5 µM
SNB-75 CNS
  TGI: 35.4 µM
NCI/ADR-RES ovarian
  TGI: 47 µM
ACHN renal
  TGI: 29 µM
HCT-15 colon
  TGI: 25.8 µM
PC-3 prostate
  TGI: 25.4 µM
NCI-H226 lung
  TGI: 76.9 µM
HOP-92 NSCLC
  TGI: 41.8 µM
MDA-MB-435
  TGI: 29.1 µM
UACC-62 melanoma
  TGI: 29.5 µM
UO-31 renal
  TGI: 23.8 µM
HT29 colon
  TGI: 43.9 µM
NCI-H23 lung
  TGI: 28.9 µM
SK-OV-3 ovarian
  TGI: 32.6 µM
MCF7 breast
  TGI: 19.6 µM
COLO 205 colon
  TGI: 28.5 µM

— PubChem BioAssay (NCI)
